Measurements published in PMC9705314, “Characterization of a new potent and long-lasting single chain peptide agonist of RXFP1 in cells and in vivo translational models” (Scientific Reports, 2022).
*1 amine or outer side, *2 acyl side, *3 side chain or, on linkers, in order; H or OH if unused. Where a SMILES comes first, the peptide text is derived from it. Side-chain parts run from the residue outwards. [ ]: non-standard residue; d: D form. The star is where a group is joined. γGlu = O=C(O)[C@H](CCC(=O)[*:2])N[*:1]; Stearoyl = CCCCCCCCCCCCCCCCCC(=O)*; Nle = CCCC[C@H](N)C(=O)O; AEEA = NCCOCCOCC(=O)O; Aib = CC(C)(N)C(=O)O

Key:
[1] = Pharmacokinetics in Sprague-Dawley rats; format: in vivo, rat; conditions: for T1/2 (apparent terminal half-life): 1 mg/kg; for CL / AUXext: IV 1 mg/kg
Description: Sprague Dawley rats (10–12 weeks old) obtained from Charles Rivers Laboratories (Como, Iltaly) were dosed with study peptide at 1 mg/kg IV and 3 mg/kg SC as a solution in PBS (0.2 mg/mL and 0.6 mg/mL respectively). Blood samples were collected from individual animals at the following time points: 0.083, 0.25, 0.5, 1, 3, 6, 8, 24, 48 and 72 h (IV route) and 0.25, 0.5, 1, 2, 4, 8, 12, 24, 48 and 72 h (SC route). All samples, collected into K3-EDTA tubes, were centrifuged and plasma was harvested and stored at − 80 °C until analysis. Two hundred μL of 0.1% formic acid in methanol containing 10 ng/mL warfarin as internal standard were added to 50 μL of standard, QC and PK study samples to obtain the protein precipitation. Each sample was vortexed and centrifuged, for 20 min, at 17,000 rcf at 4 °C. Ten microliters of the extracted plasma samples were injected onto the column. Chromatographic separation was performed on an Ultimate 3000 (Thermo Scientific) chromatography system using an XSelect Peptide CSH C18, (50 mm × 2.1 mm I.D., 2.5 μm, 130 Å; Waters Corporation) with a flow rate of 0.500 mL/min at 60 °C and a two-solvent linear gradient system. Solvents A (water) and B (acetonitrile) contained both 0.1% formic acid. […] The Ultimate 3000 was coupled to an Orbitrap QExactive™ mass spectrometer (Thermo Scientific) in positive mode. Quantitation was performed in full scan. The optimized source parameters were as follows: ion spray voltage 2.9 kV, sheath gas flow 50 a.u., aux gas flow 15 a.u., aux T 300 °C, capillary T 320 °C, S-lens RF level 50%. Full MS parameters were as follows: mass range 150–2000, AGC target 1 × 10^6, max injection time 250 ms, resolution 70,000 (FWHM @ 200 m/z). Data processing was performed using Xcalibur 3.0 (Thermo Scientific). Ion current of the [M + 5H]5 + of the SA10SC-RLX was extracted with 5 ppm window for quantitation (814.47219 m/z). A calibration curve with 12 standard points was prepared freshly on the day of analysis by spiking appropriate amounts of an intermediate working standard solution into blank rat plasma and ranged from 1.22 to 20,000 ng/mL (0.30–4910 nM). Three QC samples, each at six concentration levels from 5.0 to 15,000 ng/mL (1.22–3690 nM), were used for all analyses. Calibration curves were prepared by plotting the analyte to internal standard peak area ratio versus concentration. Calibration standards were fit by linear regression with 1/x^2 weighting. QC samples (n = 3) were used at six concentration levels. Accepted calibration curve contained minimum 7 concentration levels within ± 20% of nominal. Accepted QCs were within ± 25% of nominal. PK parameters were calculated by non-compartmental analysis using Watson LIMS 7.5.

RXFP1 = target: T1, RXFP1 (Homo sapiens, UniProt Q9HBX9); assay: xCELLigence real time impedance in EA.hy926_RXFP1 cells; format: cell-based; design: expressed in transfected cells; host or cells: EA.hy926 (ATCC CRL-2922), lentiviral transduction, puromycin selection; conditions: 10 nM, over 10 h
T1 sequence (Q9HBX9 1-757): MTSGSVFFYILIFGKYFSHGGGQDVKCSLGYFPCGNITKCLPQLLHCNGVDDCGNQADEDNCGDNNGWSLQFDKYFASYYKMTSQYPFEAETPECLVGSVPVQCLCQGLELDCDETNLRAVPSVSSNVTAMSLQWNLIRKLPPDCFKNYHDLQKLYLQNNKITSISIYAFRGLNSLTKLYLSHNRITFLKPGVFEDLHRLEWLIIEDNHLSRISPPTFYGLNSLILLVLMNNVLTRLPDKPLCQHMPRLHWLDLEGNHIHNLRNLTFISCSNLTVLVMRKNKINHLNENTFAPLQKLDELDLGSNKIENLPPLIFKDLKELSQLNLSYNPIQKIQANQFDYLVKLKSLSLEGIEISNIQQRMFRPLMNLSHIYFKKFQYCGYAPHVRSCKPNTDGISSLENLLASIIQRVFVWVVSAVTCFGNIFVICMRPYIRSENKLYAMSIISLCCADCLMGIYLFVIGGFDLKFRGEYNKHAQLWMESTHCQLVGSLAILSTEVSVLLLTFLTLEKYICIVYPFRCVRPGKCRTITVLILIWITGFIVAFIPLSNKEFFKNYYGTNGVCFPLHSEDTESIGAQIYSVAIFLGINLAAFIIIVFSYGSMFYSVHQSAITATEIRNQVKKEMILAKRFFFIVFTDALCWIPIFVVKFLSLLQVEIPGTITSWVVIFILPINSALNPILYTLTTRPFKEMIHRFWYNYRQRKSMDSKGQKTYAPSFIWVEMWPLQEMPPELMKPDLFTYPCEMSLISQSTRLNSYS
Description: Cell impedance assays in both wild type EA.hy926 and EA.hy926_RXFP1 cell lines were performed using a MP RCTA xCELLigence Analyzer (ACEA Biosciences) on E-Plates. 20,000 cells/well were seeded in E-plates in 200 µL of growth medium and left to settle for 30 min at room temperature. Plates were then placed into the xCELLigence RTCA MP Instrument under 5% CO2 at 37 °C and impedance was continuously measured every 15 min overnight. The next day, a 4-h serum starvation was performed using the same medium but with 0.1% FCS (impedance measurement every 5 min).
Data analysis was performed using RTCA2.0 software according to ACEA recommendations. Raw impedance expressed as cell index was normalized for each well by dividing individual Cell Index values by baseline Cell index values obtained 5 min before peptide treatment in order to obtain Normalized Cell Index (NCI): mean NCI from 4 replicates for each condition are presented.

| level at time molar at 12 h ([1]; Sprague-Dawley, rat, plasma, rats, SC 3 mg/kg, read-out: plasma concentration after 12 h) [nM] | T1/2 (apparent terminal half-life) ([1]; male Sprague-Dawley rats, IV 1 mg/kg in PBS, plasma, LC-HRMS, non-compartmental analysis, mean of n = 3) [h] | T1/2 (apparent terminal half-life) ([1]; male Sprague-Dawley rats, IV 1 mg/kg in PBS, plasma, LC-HRMS, non-compartmental analysis, mean of n = 3, listed as SA10SC_RLX) [h] | CL ([1]; male Sprague-Dawley rats, plasma, LC-HRMS, animal 1) [mL/min/kg] | CL ([1]; male Sprague-Dawley rats, plasma, LC-HRMS, animal 2) [mL/min/kg] | CL ([1]; male Sprague-Dawley rats, plasma, LC-HRMS, animal 3) [mL/min/kg] | AUXext ([1]; male Sprague-Dawley rats, plasma, animal 1) [%] | AUXext ([1]; male Sprague-Dawley rats, plasma, animal 2) [%] | AUXext ([1]; male Sprague-Dawley rats, plasma, animal 3) [%] | Cmax ([1]; male Sprague-Dawley rats, SC 3 mg/kg in PBS, plasma, LC-HRMS, non-compartmental analysis, mean of n = 3) [nM] | Tmax ([1]; male Sprague-Dawley rats, SC 3 mg/kg in PBS, plasma, LC-HRMS, mean of n = 3) [h] | F ([1]; male Sprague-Dawley rats, SC 3 mg/kg vs IV 1 mg/kg, mean of n = 3) [%] | AUCext ([1]; male Sprague-Dawley rats, SC 3 mg/kg, plasma, mean of n = 3) [%] | AUC ([1]; rat, male Sprague-Dawley rats, IV 1 mg/kg in PBS, plasma, LC-HRMS, non-compartmental analysis, mean of n = 3) [µM·h] | clearance ([1]; rat, male Sprague-Dawley rats, IV 1 mg/kg in PBS, plasma, LC-HRMS, non-compartmental analysis, mean of n = 3, read-out: CL (plasma clearance)) [mL/min/kg] | C0 ([1]; rat, male Sprague-Dawley rats, IV 1 mg/kg in PBS, plasma, LC-HRMS, non-compartmental analysis, mean of n = 3, read-out: Co) [nM] | Vd ([1]; rat, male Sprague-Dawley rats, IV 1 mg/kg in PBS, plasma, LC-HRMS, non-compartmental analysis, mean of n = 3, read-out: Vss) [L/kg] | AUC ([1]; rat, male Sprague-Dawley rats, SC 3 mg/kg in PBS, plasma, LC-HRMS, non-compartmental analysis, mean of n = 3) [µM·h] | kinetics and shape of the RXFP1 activation signal (impedance) (RXFP1) | Compound |
| --- | --- | --- | --- | --- | --- | --- | --- | --- | --- | --- | --- | --- | --- | --- | --- | --- | --- | --- | --- |
| ~1000 | 4 | 3.9 | 0.48 | 0.44 | 0.38 | 1.01 | 1.01 | 1.02 | 1500 | 8 | 74 | 1.09 | 9.57 | 0.43 | 3200 | 0.12 | 21.2 | – | CCCCCCCCCCCCCCCCCC(=O)N[C@@H](CCC(=O)N[C@@H](CCC(=O)N[C@@H](CCC(=O)NCCOCCOCC(=O)NCCOCCOCC(=O)NCCOCCOCC(=O)NCCCC[C@H](NC(=O)[C@H](CCCCNC(C)=O)NC(=O)[C@H](CCCCN)NC(=O)[C@H](CCCNC(=N)N)NC(=O)C(C)(C)NC(=O)[C@H](CO)NC(=O)[C@H](Cc1c[nH]c2ccccc12)NC(=O)[C@@H](NC(=O)[C@H](CO)NC(=O)[C@H](CCCC)NC(=O)CNC(=O)[C@H](CCC(=O)O)NC(=O)C(C)(C)NC(=O)C(C)(C)NC(=O)[C@@H](NC(=O)[C@H](CCCCNC(C)=O)NC(=O)[C@H](C)NC(=O)[C@H](CCCNC(=N)N)NC(=O)[C@@H](NC(=O)[C@H](CCCCN)NC(=O)[C@H](CCC(=O)O)NC(=O)[C@H](CCCNC(=N)N)NC(=O)CNC(=O)[C@H](CCC(=O)O)NC(=O)[C@H](CC(C)C)NC(C)=O)C(C)C)[C@@H](C)CC)[C@@H](C)O)C(N)=O)C(=O)O)C(=O)O)C(=O)O [SA10SC-RLX] (Ac-LEGREKVRAK(Ac)I[Aib][Aib]EG[Nle]STWS[Aib]RKK(Ac)K([AEEA-AEEA-AEEA-γGlu-γGlu-γGlu-Stearoyl])-NH2) |
| – | – | – | – | – | – | – | – | – | – | – | – | – | – | – | – | – | – | superimposable responses | relaxin |
